Measured values reported in patent publication US4379159A, “Antiinflammatory 2-substituted-thio-4,5-dihydro-4,5-diaryl-1H-imidazoles” (E. I. Du Pont de Nemours & Company, priority 1980, dated 1983).

Legend:
[1] = tested on: adjuvant arthritis; conditions: background statement; cited from earlier work
[2] = tested on: arthritis; conditions: background statement; cited from earlier work
[3] = tested on: adjuvant-induced arthritis in rats; test: Established Adjuvant-Induced Arthritis in Rats; type: in vivo, rat (Lewis (Wistar) male rats); conditions: oral gavage once daily 7 days (days 14-20), paw volume on day 21; for ED50: Rattus norvegicus, ED50% for decrease from control paw volume, estimated by inspection of dose-response regression lines

c1ccc([C@H]2CN3CCSC3=N2)cc1 [Levamisole, 2,3,5,6-Tetrahydro-6-phenylimidazole-[2,1-b]thiazole]
activity in an adjuvant arthritis test [1]: inactive
clinical efficacy as an antiarthritic [2]: has shown clinical efficacy

C=CCSC1=NC(c2ccc(Cl)cc2)C(c2ccc(Cl)cc2)N1.Cl (centres unmarked) [Example 2, 4,5-Bis(4-chlorophenyl)-4,5-dihydro-2-(allylthio)-1H-imidazole Hydrochloride]
percent reduction in paw volume at the indicated dose ([3]; at 25 mg/kg): 28%

Cl.FC(F)(F)CSC1=NC(c2ccc(Cl)cc2)C(c2ccc(Cl)cc2)N1 (centres unmarked) [Example 3, 4,5-Bis(4-chlorophenyl)-4,5-dihydro-2-(2,2,2-trifluoroethylthio)-1H-imidazole Hydrochloride]
ED50 [3]: 25 mg/kg

CSC1=NC(c2ccc(Cl)cc2)C(c2ccc(Cl)cc2)N1.Cl (centres unmarked) [Example 1, 4,5-Bis(4-chlorophenyl)-4,5-dihydro-2-(methylthio)-1H-imidazole Hydrochloride]
ED50 [3]: 60 mg/kg
